Assay results reported in paper PMC5216765, “Tumor suppressor berberine binds VASP to inhibit cell migration in basal-like breast cancer” (Oncotarget, 2016).
pKd: −log10 of the molar value.

Target: T1, VASP (vasodilator-stimulated phosphoprotein) (Homo sapiens, UniProt P50552)
T1 construct: recombinant VASP expressed in E. coli Rosetta (IPTG, 18 °C), as previously described
Assay: intrinsic tryptophan fluorescence quenching titration (excitation […] nm)
Assay type: binding
Conditions: 25 °C; 0.4 μM VASP; berberine 0 to 3.4 μM

T1 sequence (P50552 2-380): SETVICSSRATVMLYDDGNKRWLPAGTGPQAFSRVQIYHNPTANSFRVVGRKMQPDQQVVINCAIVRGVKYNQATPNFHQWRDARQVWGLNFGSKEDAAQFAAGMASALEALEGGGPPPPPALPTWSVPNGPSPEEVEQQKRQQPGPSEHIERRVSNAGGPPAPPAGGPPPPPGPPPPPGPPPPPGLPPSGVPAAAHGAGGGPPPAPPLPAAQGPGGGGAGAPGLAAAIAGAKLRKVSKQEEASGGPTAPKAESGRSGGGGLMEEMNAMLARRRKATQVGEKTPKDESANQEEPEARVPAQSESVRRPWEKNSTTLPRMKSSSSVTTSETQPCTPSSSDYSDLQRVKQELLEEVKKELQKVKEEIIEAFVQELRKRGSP

Structure (SMILES): COc1ccc2cc3[n+](cc2c1OC)CCc1cc2c(cc1-3)OCO2 [berberine]
- pKd: 7.00
